Experiments:
[1] = target: T1, Gag-Pol polyprotein [588-1127,Y768C]/[588-1147,Y768C] (Human immunodeficiency virus 1, UniProt P04585, Y768C); assay: HIV-1 RT Assay; details: pH 7.8; 37 °C
T1 construct: 588-1127; 588-1147

[2] = target: T2, Gag-Pol polyprotein [588-1027,K690N]/[588-1147,K690N] (Human immunodeficiency virus 1, UniProt P04585, K690N); assay: HIV-1 RT Assay; details: pH 7.8; 37 °C
T2 construct: 588-1027; 588-1147

| Compound | IC50 [1] | IC50 [2] |
| --- | --- | --- |
| Cc1ccc(S(=O)(=O)c2c(C(N)=O)[nH]c3ccc(Cl)cc23)cc1 [5-chloro-3-[(4-methylbenzene)sulfonyl]-1H-indole-2-carboxamide] | 0.11 µM | > 5 µM |
| NC(=O)c1[nH]c2ccc(Cl)cc2c1S(=O)(=O)c1ccccc1 [5Cl3PhSO2-2IndolCONH2] | 0.16 µM | > 5 µM |
| Cc1cc(C)cc(S(=O)(=O)c2c(C(N)=O)[nH]c3ccc(Cl)cc23)c1 [5-chloro-3-[(3,5-dimethylbenzene)sulfonyl]-1H-indole-2-carboxamide] | 0.13 µM | > 5 µM |

— BindingDB's records for doi:10.1021/jm0211063 (Sapienza University of Rome, 2003)
